Legend:
[1] = biological target: T1, human CYP11B2 (Homo sapiens, UniProt P19099); experiment: G-402 cellular enzyme assay, human CYP11B2 (aldosterone release, HTRF); type: cell-based; conditions: G-402 cells, 1 μM Deoxycorticosterone
T1 construct: expressed in transfected cells
T1 sequence (P19099 25-503): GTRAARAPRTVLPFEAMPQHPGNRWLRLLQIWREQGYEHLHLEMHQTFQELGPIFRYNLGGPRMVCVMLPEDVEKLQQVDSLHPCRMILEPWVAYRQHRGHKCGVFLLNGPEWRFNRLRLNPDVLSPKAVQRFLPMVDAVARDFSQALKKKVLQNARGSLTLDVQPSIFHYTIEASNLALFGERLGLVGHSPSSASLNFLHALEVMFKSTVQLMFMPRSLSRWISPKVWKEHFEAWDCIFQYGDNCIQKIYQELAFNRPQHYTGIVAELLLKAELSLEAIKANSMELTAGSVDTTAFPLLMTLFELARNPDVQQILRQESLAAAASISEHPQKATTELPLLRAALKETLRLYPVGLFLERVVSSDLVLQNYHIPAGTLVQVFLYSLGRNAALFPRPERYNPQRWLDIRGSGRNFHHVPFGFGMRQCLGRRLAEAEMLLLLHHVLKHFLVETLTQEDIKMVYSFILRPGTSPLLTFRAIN
Outline: (§1)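 G-402 cells stably expressing human CYP11B1 or CYP11B2, in DMEM/F12 with 2.5% charcoal-treated FCS, were incubated 16 h with test compound and substrate (1 μM 11-deoxycortisol for CYP11B1; 1 μM deoxycorticosterone for CYP11B2). Cortisol or aldosterone in supernatant was quantified by HTRF; EC50 from 4-parameter MMF fit.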

[2] = biological target: T2, human CYP11B1 (Homo sapiens, UniProt P15538); experiment: G-402 cellular enzyme assay, human CYP11B1 (cortisol release, HTRF); type: cell-based; conditions: G-402 cells, 1 μM Deoxycortisol
T2 construct: expressed in transfected cells
T2 sequence (P15538 25-503): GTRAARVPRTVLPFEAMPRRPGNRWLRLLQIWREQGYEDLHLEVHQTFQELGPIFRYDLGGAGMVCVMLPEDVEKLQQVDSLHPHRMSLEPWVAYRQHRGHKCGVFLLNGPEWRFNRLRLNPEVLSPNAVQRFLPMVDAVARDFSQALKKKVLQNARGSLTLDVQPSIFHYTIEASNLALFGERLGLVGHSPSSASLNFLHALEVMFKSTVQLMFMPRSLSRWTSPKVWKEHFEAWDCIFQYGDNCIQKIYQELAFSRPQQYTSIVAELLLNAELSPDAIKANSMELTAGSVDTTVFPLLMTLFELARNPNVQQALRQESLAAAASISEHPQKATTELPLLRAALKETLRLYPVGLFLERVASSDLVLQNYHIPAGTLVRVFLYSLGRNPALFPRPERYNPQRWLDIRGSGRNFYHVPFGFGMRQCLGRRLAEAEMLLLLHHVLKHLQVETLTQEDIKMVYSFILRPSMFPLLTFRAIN
Outline: as §1

O=C(c1cncc(N2CCc3cc(Cl)ccc3C2=O)c1)N1CCC(O)C1 (stereo not shown) [Example 40, 6-Chloro-2-[5-(3-hydroxy-pyrrolidine-1-carbonyl)-pyridin-3-yl]-3,4-dihydro-2H-isoquinolin-1-one]
EC50 [1]: 1680 nM | EC50 [2]: 10500 nM

CC(=O)NCc1cncc(N2C(=O)c3ccc(Cl)cc3C2(C)C)c1 [Example 400, N-[5-(6-Chloro-1,1-dimethyl-3-oxo-1,3-dihydro-isoindol-2-yl)-pyridin-3-ylmethyl]-acetamide]
EC50 [1]: 58.9 nM | EC50 [2]: 2740 nM

CCC(=O)N[C@@H]1CCCc2c1cncc2N1C(=O)c2cc(Cl)ccc2[C@H]1CC (single isomer, unassigned) [Example 312, N-[(R or S)-4-((R or S)-5-Chloro-1-ethyl-3-oxo-1,3-dihydro-isoindol-2-yl)-5,6,7,8-tetrahydro-isoquinolin-8-yl]-propionamide]
EC50 [1]: 48.2 nM | EC50 [2]: 4010 nM

CC[C@@H]1c2cc(Cl)ccc2C(=O)N1c1cncc2c1CC[C@H]2NC(C)=O (single isomer, unassigned) [Example 344, (+)-N—[(R or S)-4-((R or S)-5-Chloro-3-ethyl-1-oxo-1,3-dihydro-isoindol-2-yl)-6,7-dihydro-5H-[2]pyrindin-7-yl]-acetamide]
EC50 [1]: 31.2 nM | EC50 [2]: 1500 nM

O=C1c2ccc(Cl)cc2CCN1c1cncc(N2CCOCC2)c1 [Example 224, 6-Chloro-2-(5-morpholin-4-yl-pyridin-3-yl)-3,4-dihydro-2H-isoquinolin-1-one]
EC50 [1]: 37.2 nM | EC50 [2]: 293 nM

O=C1c2ccc(Cl)cc2CN1c1cccnc1 [Example 108, 5-Chloro-2-pyridin-3-yl-2,3-dihydro-isoindol-1-one]
EC50 [1]: 163 nM | EC50 [2]: 9780 nM

CC(=O)NC1CCc2c1cncc2N1CCc2cc(Cl)ccc2C1=O (single isomer, unassigned) [Example 333, N-[(S or R)-4-(6-Chloro-1-oxo-3,4-dihydro-1H-isoquinolin-2-yl)-6,7-dihydro-5H-[2]pyrindin-7-yl]-acetamide]
EC50 [1]: 95.8 nM | EC50 [2]: 5240 nM

CC1(C)c2nc(Cl)ccc2C(=O)N1c1cncc(OC(F)F)c1 [Example 293, 2-Chloro-6-(5-difluoromethoxy-pyridin-3-yl)-7,7-dimethyl-6,7-dihydro-pyrrolo[3,4-b]pyridin-5-one]
EC50 [1]: 16.4 nM | EC50 [2]: 285 nM

O=C(Nc1cncc(N2CCc3cc(Cl)ccc3C2=O)c1)c1ccc(F)cc1 [Example 249, N-[5-(6-Chloro-1-oxo-3,4-dihydro-1H-isoquinolin-2-yl)-pyridin-3-yl]-4-fluoro-benzamide]
EC50 [1]: 3220 nM | EC50 [2]: 7600 nM

CS(=O)(=O)NC1CCc2c1cncc2N1CCc2cc(Cl)ccc2C1=O (single isomer, unassigned) [Example 331, N-[(R or S)-4-(6-Chloro-1-oxo-3,4-dihydro-1H-isoquinolin-2-yl)-6,7-dihydro-5H-[2]pyrindin-7-yl]-methanesulfonamide]
EC50 [1]: 4350 nM | EC50 [2]: 35100 nM

O=C1c2ccc(Cl)cc2CCN1c1cncc(C(O)C(F)(F)F)c1 (stereo not shown) [Example 18, 6-Chloro-2-[5-(2,2,2-trifluoro-1-hydroxy-ethyl)-pyridin-3-yl]-3,4-dihydro-2H-isoquinolin-1-one]
EC50 [1]: 58.6 nM | EC50 [2]: 507 nM

CC[C@H]1c2cc(Cl)ccc2C(=O)N1c1cncc2c1CC[C@@H]2NC(C)=O (single isomer, unassigned) [Example 345, (−)-N—[(S or R)-4-((S or R)-5-Chloro-3-ethyl-1-oxo-1,3-dihydro-isoindol-2-yl)-6,7-dihydro-5H-[2]pyrindin-7-yl]-acetamide]
EC50 [1]: 49.4 nM | EC50 [2]: 2000 nM

O=C1c2ccc(Cl)cc2CN1c1cncc2c1CCCC2O (stereo not shown) [Example 117, 5-Chloro-2-(8-hydroxy-5,6,7,8-tetrahydro-isoquinolin-4-yl)-2,3-dihydro-isoindol-1-one]
EC50 [1]: 127 nM | EC50 [2]: 894 nM

Cn1ccnc1-c1cncc(N2CCc3cc(Cl)ccc3C2=O)c1 [Example 244, 6-Chloro-2-[5-(1-methyl-1H-imidazol-2-yl)-pyridin-3-yl]-3,4-dihydro-2H-isoquinolin-1-one]
EC50 [1]: 1860 nM | EC50 [2]: 4690 nM

COC(C)c1c(F)cncc1N1CCc2cc(Cl)ccc2C1=O (stereo not shown) [Example 76, 6-Chloro-2-[5-fluoro-4-(1-methoxy-ethyl)-pyridin-3-yl]-3,4-dihydro-2H-isoquinolin-1-one]
EC50 [1]: 492 nM | EC50 [2]: 13800 nM

CN1CCN(Cc2cncc(N3CCc4cc(Cl)ccc4C3=O)c2)CC1 [Example 167, 6-Chloro-2-[5-(4-methyl-piperazin-1-ylmethyl)-pyridin-3-yl]-3,4-dihydro-2H-isuquinolin-1-one]
EC50 [1]: 47.9 nM | EC50 [2]: 168 nM

CC(=O)N[C@@H]1CCCc2c1cncc2N1C(=O)c2ccc(Cl)cc2[C@H]1C (single isomer, unassigned) [Example 364, N-[(R or S)-4-((R or S)-5-Chloro-3-methyl-1-oxo-1,3-dihydro-isoindol-2-yl)-5,6,7,8-tetrahydro-isoquinolin-8-yl]-acetamide]
EC50 [1]: 130 nM | EC50 [2]: 5570 nM

NC(=O)COc1cncc(N2CCc3cc(Cl)ccc3C2=O)c1 [Example 253, 2-[5-(6-Chloro-1-oxo-3,4-dihydro-1H-isoquinolin-2-yl)-pyridin-3-yloxy]-acetamide]
EC50 [1]: 581 nM | EC50 [2]: 10000 nM

Cn1nccc1-c1cncc(N2C(=O)c3ccc(Cl)nc3C2(C)C)c1 [Example 425, 2-Chloro-7,7-dimethyl-6-[5-(2-methyl-2H-pyrazol-3-yl)-pyridin-3-yl]-6,7-dihydro-pyrrolo[3,4-b]pyridin-5-one]
EC50 [1]: 56.2 nM | EC50 [2]: 1270 nM

CC1(C)c2cc(Cl)ccc2C(=O)N1c1cncc(N2CCN(S(C)(=O)=O)CC2)c1 [Example 457, 5-Chloro-2-[5-(4-methanesulfonyl-piperazin-1-yl)-pyridin-3-yl]-3,3-dimethyl-2,3-dihydroisoindol-1-one]
EC50 [1]: 1.8 nM | EC50 [2]: 298 nM

CN1CCN(Cc2cncc(N3CCc4cc(Cl)ccc4C3=O)c2)C1=O [Example 159, 6-Chloro-2-[5-(3-methyl-2-oxo-imidazolidin-1-ylmethyl)-pyridin-3-yl]-3,4-dihydro-2H-isoquinolin-1-one]
EC50 [1]: 209 nM | EC50 [2]: 4460 nM

CCC(=O)NCc1cncc(N2C(=O)c3ccc(Cl)cc3C23CC3)c1 [Example 396, N-{[5-(6′-Chloro-3′-oxospiro [cyclopropane-1,1′-isoindol]-2′(3′H)-yl)pyridin-3-yl]methyl} propanamide]
EC50 [1]: 207 nM | EC50 [2]: 5250 nM

O=C1c2ccc(Cl)cc2CCN1c1cncc(Cn2ccc3cccc(F)c32)c1 [Example 185, 6-Chloro-2-[5-(7-fluoro-indol-1-ylmethyl)-pyridin-3-yl]-3,4-dihydro-2H-isoquinolin-1-one]
EC50 [1]: 66 nM | EC50 [2]: 673 nM

CC(=O)N1CCCC(c2cncc(N3C(=O)c4ccc(Cl)cc4C3(C)C)n2)C1 (stereo not shown) [Example 462, 2-[6-(1-Acetyl-piperidin-3-yl)-pyrazin-2-yl]-5-chloro-3,3-dimethyl-2,3-dihydro-isoindol-1-one]
EC50 [1]: 32.6 nM | EC50 [2]: 720 nM

COc1ccc2c(n1)CCN(c1cccnc1)C2=O [Example 98, 2-Methoxy-6-pyridin-3-yl-7,8-dihydro-6H-[1,6]naphthyridin-5-one]
EC50 [1]: 227 nM | EC50 [2]: 6830 nM

CC(C)Oc1cncc(N2C(=O)c3ccc(Cl)cc3C2(C)C)c1 [Example 304, 5-Chloro-2-(5-isopropoxy-pyridin-3-yl)-3,3-dimethyl-2,3-dihydro-isoindol-1-one]
EC50 [1]: 2.4 nM | EC50 [2]: 78.1 nM

CC1(C)c2cc(Cl)ccc2C(=O)N1c1cncc(CNS(C)(=O)=O)c1 [Example 391, N-[5-(6-Chloro-1,1-dimethyl-3-oxo-1,3-dihydro-isoindol-2-yl)-pyridin-3-ylmethyl]-methane-sulfonamide]
EC50 [1]: 29.7 nM | EC50 [2]: 1450 nM

CCc1ccc(C(O)c2cncc(N3CCc4cc(Cl)ccc4C3=O)c2)cc1 (stereo not shown) [Example 33, 6-Chloro-2-{5-[(4-ethyl-phenyl)-hydroxy-methyl]-pyridin-3-yl}-3,4-dihydro-2H-isoquinolin-1-one]
EC50 [1]: 210 nM | EC50 [2]: 485 nM

COC(C)c1ccncc1N1CCc2cc(Cl)ccc2C1=O (stereo not shown) [Example 64, 6-Chloro-2-[4-(1-methoxy-ethyl)-pyridin-3-yl]-3,4-dihydro-2H-isoquinolin-1-one]
EC50 [1]: 127 nM | EC50 [2]: 6310 nM

From patent US9133158B2, “Bicyclic dihydroisoquinoline-1-one derivatives” (Hoffmann-La Roche Inc., priority 2011, dated 2015)
